Results reported in PMC6934184, “Selective DNA-PKcs inhibition extends the therapeutic index of localized radiotherapy and chemotherapy” (The Journal of Clinical Investigation, 2019).

Molecular target: T1, AKT3 (PKB gamma) (Homo sapiens, UniProt Q9Y243)
T1 construct: purchased Thermo Fisher Scientific (Life Technologies) SelectScreen
Experiment: SelectScreen Z'LYTE
Format: biochemical
Procedure, shortened: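 SelectScreen broad panel; activity (Z'LYTE, Adapta) plus binding formats. ATP: Km app for CSF1R Z'LYTE; 10 for CAMK1 Adapta. Readout = % per kinase.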

T1 sequence (Q9Y243 whole entry): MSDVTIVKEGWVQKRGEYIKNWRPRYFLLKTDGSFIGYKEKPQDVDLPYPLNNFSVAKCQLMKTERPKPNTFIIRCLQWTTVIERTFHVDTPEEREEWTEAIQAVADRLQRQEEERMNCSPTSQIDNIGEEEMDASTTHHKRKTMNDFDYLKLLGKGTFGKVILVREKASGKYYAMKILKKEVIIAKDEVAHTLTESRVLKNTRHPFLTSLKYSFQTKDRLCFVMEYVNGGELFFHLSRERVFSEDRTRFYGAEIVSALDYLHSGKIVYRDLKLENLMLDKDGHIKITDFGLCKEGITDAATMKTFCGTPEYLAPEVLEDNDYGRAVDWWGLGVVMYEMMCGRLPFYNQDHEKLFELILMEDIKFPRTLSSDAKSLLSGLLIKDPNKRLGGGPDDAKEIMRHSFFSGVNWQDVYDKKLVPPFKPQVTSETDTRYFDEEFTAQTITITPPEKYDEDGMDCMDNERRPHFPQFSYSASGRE

Compound `CN(C(=O)CN1CCOCC1)c1ccc2sc3c(-c4cccc5c(=O)cc(N6CC7CCC(C6)O7)oc45)cccc3c2c1` [NU5455] has an inhibition at 1 µM of -0.5%.
